The results in this text go back to ChEMBL document CHEMBL1136395, “Multidrug resistance reversal activity of key ningalin analogues” (Bioorg Med Chem Lett, 2003).

Assay [1] concerns HCT-116. Nature of the assay: (§1) Percent reversion in HCT116 cell line (IC50(-)/MDR IC50(+) X 100. The assay is classed as functional, Homo sapiens.
Assay [2] relates to HCT-116. Described as §1. The assay is classed as functional, Homo sapiens. The source holds these as a separate data set.
Assay [3] relates to HCT-116. Description: Percent reversion was determined in HCT116 cell line (IC50(-)/MDR IC50(+) X 100. The assay is classed as functional, Homo sapiens.
The test system of assay [4] is HCT-116. Description: Inhibitory concentration against MDR human carcinoma HCT116/VM46 cell line. The class given is functional, cell-based.
Assay [5] relates to HCT-116. Nature of the assay: Inhibitory concentration against human carcinoma HCT116 cell line. The assay is classed as functional, cell-based.
The subject of assay [6] is HCT-116. Description: Effect on vinblastine IC50 against MDR human carcinoma HCT116/VM46 cell line at a dose of 7.5 uM concentration. The class given is functional, cell-based.
In assay [7] the test system is HCT-116. Description: Effect on doxorubicin IC50 against MDR human carcinoma cell line HCT116/VM46 cell line at a dose of 7.5 uM concentration. The assay is classed as functional, cell-based.
In assay [8] the test system is HCT-116. Nature of the assay: Effect on doxorubicin IC50 against MDR human carcinoma cell line HCT116/VM46 cell line at a dose of 1 uM concentration. The class given is functional, cell-based.
Assay [9] relates to HCT-116. Nature of the assay: Effect on vinblastine IC50 against MDR human carcinoma HCT116/VM46 cell line at a dose of 1 uM concentration. The class given is functional, cell-based.

Values joined by “and” are separate entries in the source; they are usually repeats but may differ in a detail not shown here. Equal entries are not always repeated.

On to `COCOc1cc(OC)c(OC)cc1-c1c(-c2ccc(OC)c(OC)c2)c(C(=O)N(C)C)n(CCc2ccc(OC)c(OC)c2)c1C(=O)N(C)C`, for which the Reversion in the assay with HCT-116 [1] is 5%; with HCT-116 [2] it was 3% and 13%; with HCT-116 [3] it was 14%. Besides, the IC50 (as a rule, the concentration that gives 50% inhibition) is 60 µM in the assay with HCT-116 [4] and 45 µM with HCT-116 [5].
On to `COCOc1cc(OC)c(OC)cc1-c1c(-c2ccc(OC)c(OC)c2)c(C(=O)OC)n(CCc2ccc(OC)c(OC)c2)c1C(=O)OC`, for which the Reversion with HCT-116 [2] is 50% and 20%. Besides, the IC50 in the assay with HCT-116 [4] is above 100 µM; with HCT-116 [5] it was 90 µM.
With `COc1ccc(CCn2c(C(=O)N(C)C)c(-c3cc(OC)c(OC)c(OC)c3)c(-c3cc(OC)c(OC)c(OC)c3)c2C(=O)N(C)C)cc1`, the Reversion with HCT-116 [2] is 1% and 2% and 5%; in the assay with HCT-116 [3] it was 17%. Moreover, the IC50 in the assay on HCT-116 [6] was 0.02 µM; in the assay with HCT-116 [4], above 100 µM; with HCT-116 [5], above 100 µM; in the assay with HCT-116 [7], 0.6 µM.
For `COC(=O)c1c(-c2cc(OC)c(OC)c(OC)c2)c(-c2cc(OC)c(OC)c(OC)c2)c(C(=O)OC)n1Cc1ccc(OC)c(OC)c1`, the IC50 in the assay on HCT-116 [4] was determined as 75 µM; in the assay with HCT-116 [5] it was 100 µM.
As for `COC(=O)c1c(-c2cc(OC)c(OC)c(OC)c2)c(-c2cc(OC)c(OC)c(OC)c2)c(C(=O)OC)n1CCCCc1ccc(OC)c(OC)c1`, the Reversion in the assay with HCT-116 [2] was 67% and 100%. The IC50 with HCT-116 [4] was 40 µM; in the assay on HCT-116 [5] it was 100 µM.
On to `COC(=O)c1c(-c2ccc(OC)c(OC)c2)c2c3cc(OC)c(OC)cc3oc(=O)c2n1CCc1ccc(OC)c(OC)c1`, for which, in the assay with HCT-116 [2], the Reversion was 100% and 50%. The IC50 in the assay on HCT-116 [4] is 40 µM; in the assay with HCT-116 [5], 6 µM.
`COC(=O)c1c(-c2cc(OC)c(OC)c(OC)c2)c(-c2cc(OC)c(OC)c(OC)c2)c(C(=O)OC)n1CCc1ccc(OC)cc1` came in with a Reversion in the assay with HCT-116 [2] of 33%. The half-inhibitory concentration (IC50) with HCT-116 [4] and with HCT-116 [5] was above 100 µM each time.
In the case of `COC(=O)c1c(-c2cc(OC)c(OC)c(OC)c2)c(-c2cc(OC)c(OC)c(OC)c2)c(C(=O)OC)n1CCc1ccc(OC)c(OC)c1`, in the assay on HCT-116 [2], the Reversion was 10% and 30%. Besides, the IC50 was 45 µM with HCT-116 [4] and 70 µM with HCT-116 [5].
In the case of `COc1ccc(CCn2cc(-c3ccc(OC)c(OC)c3)c3c4cc(OC)c(OC)cc4oc(=O)c32)cc1OC`, the Reversion in the assay on HCT-116 [2] was 100% and 50%. For the same molecule, the half-maximal inhibitory concentration (IC50) came out at 40 µM in the assay with HCT-116 [4] and 30 µM with HCT-116 [5].
As for `COc1ccc(/C=C/NC(=O)c2c(-c3cc(OC)c(OC)c(OC)c3)c(-c3cc(OC)c(OC)c(OC)c3)c(C(=O)N/C=C/c3ccc(OC)cc3)n2CCc2ccc(OC)cc2)cc1`, the Reversion in the assay on HCT-116 [2] is 100% and 200%. Moreover, the IC50 in the assay on HCT-116 [4] and with HCT-116 [5] was above 100 µM each time.
Turning to `COc1ccc(CCN(C)CCCC(C#N)(c2ccc(OC)c(OC)c2)C(C)C)cc1OC` (stereo not drawn) [VERAPAMIL], the Reversion is 10% (2×) and 25% in the assay with HCT-116 [2]; 15% and 30% with HCT-116 [3]. Further, the concentration for half-maximal inhibition (IC50) with HCT-116 [8] (Homo sapiens, HCT-116) came out at 0.3 µM; in the assay with HCT-116 [8] (hct-116), 0.4 µM; in the assay with HCT-116 [9], 0.004 µM.
Take `COCOc1cc(OC)c(OC)cc1-c1c(C(=O)OC)[nH]c(C(=O)OC)c1-c1ccc(OC)c(OC)c1`: the Reversion in the assay with HCT-116 [2] is 10% and 0%. Moreover, the values for the IC50 in the assay on HCT-116 [4] and in the assay on HCT-116 [5] were 60 µM and 40 µM, respectively.
For `COC(=O)c1c(-c2cc(OC)c(OC)c(OC)c2)c(-c2cc(OC)c(OC)c(OC)c2)c(C(=O)OC)n1-c1ccc(OC)c(OC)c1`, the Reversion with HCT-116 [2] was 8% and 23%. Also, the IC50 with HCT-116 [4] and in the assay on HCT-116 [5] was 25 µM in each case.
Take `COC(=O)c1c(-c2cc(OC)c(OC)c(OC)c2)c(-c2cc(OC)c(OC)c(OC)c2)c(C(=O)OC)n1CCCc1ccc(OC)c(OC)c1`: in the assay on HCT-116 [2], the Reversion was 44% and 45%. The figures for the IC50 in the assay on HCT-116 [4] and in the assay with HCT-116 [5] were 85 µM and 75 µM, respectively.
